Earlier results on three compounds are cited in patent US9572829B2, “Treatment of ocular disorders” (Massachusetts Eye and Ear Infirmary, priority 2004, dated 2017).

On the set-up of this data set: unit not given here. Conditions: typical value, general statement.
`CC(=O)[O-].CC(=O)[O-].CCc1c(CC)c2cc3nc(cnc4cc(OCCOCCOCCOC)c(OCCOCCOCCOC)cc4ncc4nc(cc1[n-]2)C(CCCO)=C4C)C(C)=C3CCCO.O.[Lu+3]` [lutetium texaphyrin]: the “Time that photosensitizer persists in the target neovasculature” value (“Time that photosensitizer persists” for short) was “about twenty”.
Regarding `C=Cc1c(C)c2cc3nc(c(CC(=O)N[C@@H](CC(=O)O)C(=O)O)c4[nH]c(cc5nc(cc1[nH]2)C(C)=C5CC)c(C)c4C(=O)O)[C@@H](CCC(=O)O)[C@@H]3C` [N-aspartyl chlorin e6], the “Time that photosensitizer persists” value is on record as “about twenty”.
In the case of benzoporphyrin derivative, the “Time that photosensitizer persists” value is given as “about fifty”.
